Data reported in PubChem BioAssay AID330 (DTP/NCI, 2004).
“And” between values parts separate entries of the source, which are not always exact repeats. Equal values may be shown once. Toxic doses and inconclusive results are not listed. Rule for the calls: active = survival T/C of 150% or more; inactive = T/C below 125% in these data.

System: P388 leukemia ip, CD2F1 mice, survival T/C
Assay: NCI In Vivo Anticancer Drug Screen. Data for tumor model P388 Leukemia (intraperitoneal) in CD2F1 (CDF1) mice
Details: endpoint: median survival time, higher = longer survival
In short: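 Mice carrying the transplanted tumor received test compound or vehicle. Survival was recorded in each group, and the value is the treated-group measurement divided by that of the vehicle-treated control group.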

[1] = dose: 50.0 mg/kg/injection, schedule: Q01DX009 (ip), vehicle: saline with Tween-80
[2] = dose: 50.0 mg/kg/injection, schedule: Q01DX005 (ip), vehicle: Klucel (hydroxypropylcellulose) (HPC)
[3] = dose: 100.0 mg/kg/injection, schedule: Q01DX005 (ip), vehicle: Klucel (hydroxypropylcellulose) (HPC)
[4] = dose: 200.0 mg/kg/injection, schedule: Q01DX005 (ip), vehicle: Klucel (hydroxypropylcellulose) (HPC)

Measured: T/C

CCOc1cccc(/C=N/n2c(-c3ccccc3)nc3ccccc3c2=O)c1O
inactive: [1] 99 % of control | dose: 100.0 mg/kg/injection, schedule: Q01DX009 (ip), vehicle: saline with Tween-80 96 % of control | dose: 200.0 mg/kg/injection, schedule: Q01DX009 (ip), vehicle: saline with Tween-80 105 % of control

Cc1cc2ncnn2cn1
inactive: dose: 100.0 mg/kg/injection, schedule: Q04DX003 (ip), vehicle: saline with Tween-80 99 % of control | dose: 200.0 mg/kg/injection, schedule: Q04DX003 (ip), vehicle: saline with Tween-80 99 % of control | dose: 400.0 mg/kg/injection, schedule: Q04DX003 (ip), vehicle: saline with Tween-80 93 % of control

CC(C)(C)c1ccc(C(=O)N2CCOC23CCCCC3)cc1
inactive: [2] 105 % of control | [3] 96 % of control | [4] 96 % of control

Cc1[nH]c(=O)[nH]c(=O)c1/C=C/C(=O)NC(CO)CS(=O)C(C)C (centres undefined)
inactive: dose: 0.07 mg/kg/injection, schedule: Q01DX009 (ip), vehicle: water 103 % of control | dose: 0.15 mg/kg/injection, schedule: Q01DX009 (ip), vehicle: water 100 % of control | dose: 0.3 mg/kg/injection, schedule: Q01DX009 (ip), vehicle: water 103 % of control | dose: 0.6 mg/kg/injection, schedule: Q01DX009 (ip), vehicle: water 103 % of control | dose: 2.0 mg/kg/injection, schedule: Q01DX009 (ip), vehicle: water 121 % of control | dose: 4.0 mg/kg/injection, schedule: Q01DX009 (ip), vehicle: water 118 % of control | dose: 8.0 mg/kg/injection, schedule: Q01DX009 (ip), vehicle: water 118 % of control | dose: 32.0 mg/kg/injection, schedule: Q01DX009 (ip), vehicle: water 100 % of control and 124 % of control | dose: 64.0 mg/kg/injection, schedule: Q01DX009 (ip), vehicle: water 93 % of control | dose: 128.0 mg/kg/injection, schedule: Q01DX009 (ip), vehicle: water 98 % of control | dose: 200.0 mg/kg/injection, schedule: Q01DX009 (ip), vehicle: water 108 % of control | dose: 256.0 mg/kg/injection, schedule: Q01DX009 (ip), vehicle: water 96 % of control | dose: 300.0 mg/kg/injection, schedule: Q01DX009 (ip), vehicle: water 110 % of control | dose: 400.0 mg/kg/injection, schedule: Q01DX009 (ip), vehicle: water 113 % of control

Cc1ccc(S(=O)(=O)Nn2nnnc2N)cc1
inactive: dose: 100.0 mg/kg/injection, schedule: Q01DX001 (ip), vehicle: Klucel (hydroxypropylcellulose) (HPC) 102 % of control | dose: 200.0 mg/kg/injection, schedule: Q01DX001 (ip), vehicle: Klucel (hydroxypropylcellulose) (HPC) 100 % of control | dose: 400.0 mg/kg/injection, schedule: Q01DX001 (ip), vehicle: Klucel (hydroxypropylcellulose) (HPC) 100 % of control

Brc1ccc(Nc2nnc3nc(-c4ccccc4)c(-c4ccccc4)nn23)cc1
inactive: dose: 50.0 mg/kg/injection, schedule: Q01DX005 (ip), vehicle: saline with Tween-80 89 % of control | dose: 100.0 mg/kg/injection, schedule: Q01DX005 (ip), vehicle: saline with Tween-80 89 % of control | dose: 200.0 mg/kg/injection, schedule: Q01DX005 (ip), vehicle: saline with Tween-80 97 % of control

O=c1[nH]c(=S)[nH]c2c1CN(CCCN1CCN(CCCN3CNc4[nH]c(=S)[nH]c(=O)c4C3)CC1)CN2
inactive: [2] 96 % of control | [3] 94 % of control | [4] 95 % of control

O=C[c-]1[c-][c-][c-][c-]1.[Fe+2].[c-]1[c-][c-][cH-][c-]1
inactive: dose: 6.25 mg/kg/injection, schedule: Q01DX009 (ip), vehicle: saline with Tween-80 106 % of control | dose: 12.5 mg/kg/injection, schedule: Q01DX009 (ip), vehicle: saline with Tween-80 95 % of control | dose: 25.0 mg/kg/injection, schedule: Q01DX009 (ip), vehicle: saline with Tween-80 97 % of control | [1] 99 % of control

CC(C)N1C(=O)NC2C1NC(=O)N2C(C)C (centres undefined) (tested in a mixture with another compound)
inactive: dose: 60.0 mg/kg/injection, schedule: Q01DX005 (ip), vehicle: saline with Tween-80 106 % of control | dose: 120.0 mg/kg/injection, schedule: Q01DX005 (ip), vehicle: saline with Tween-80 105 % of control | dose: 240.0 mg/kg/injection, schedule: Q01DX005 (ip), vehicle: saline with Tween-80 105 % of control
